Converted amounts (≈) assume the structure as drawn.
Legend:
Type in all cases: cell-based
[1] = system: Alternaria alternata; test: Fungicidal activity screen in amended agar, 96 well plates, Alternaria alternata; conditions: Medium N agar, 1,000 spores/mL, 20, 2, 0.2 and 0.02 ppm, room temperature (18° C.), assessed after 3 to 4 days, read-out: Alternaria (fungal growth vs DMSO controls, EC50 ranking)
Description: (§1) Compounds were screened in 96 well plates with 10 compounds per plate. Each compound was screened using agar amended to 20, 2, 0.2 and 0.02 ppm of the test material. Proline at 50 and 10 ppm and 0.2% DMSO were used respectively as positive and negative controls. Each test concentration and standard were tested twice on a plate.
(§2) Compounds were screened against the following three fungal pathogens—Botrytis cinerea, Alternaria alternata and Zymoseptoria tritici. The agar used in the test varied depending on the pathogen with Medium N used for B. cinerea and A. alternata and 1% potato dextrose agar for Z. tritici. For each pathogen sufficient spores were added to the appropriate agar to give 1,000 spores/mL agar of A. alternata, 5,000 spores/ml agar of B. cinerea and 10,000 spores/mL agar of Z. tritici.
(§3) A ×10 stock solution in 2% DMSO was produced for each dose i.e. 200, 20, 2 and 0.2 ppm, and 10 μl of this added to the appropriate wells on the plate. An equivalent amount of 2% DMSO and Proline stock at 500 and 100 ppm were added for the controls. To each well, 90 μl of the appropriate agar spore suspension was added to give the final well concentrations outlined in the first paragraph.
(§4) Plates were incubated at room temperature (18° C.) and assessed after: • a) 3 to 4 days A. alternata and B. cinerea • b) 7 days for Z. tritici
(§5) The amount of fungal growth in each well was compared to the DMSO controls and scored according to the following key: • A—EC50<2 ppm • B—2≤EC50<20 • C—EC50≥20 • D—No activity detected at the highest dose tested • NT—Not tested

[2] = system: Zymoseptoria tritici; test: Fungicidal activity screen in amended agar, 96 well plates, Zymoseptoria tritici; conditions: Zymoseptoria tritici, 168 h; 1% potato dextrose agar, 10,000 spores/mL, 20, 2, 0.2 and 0.02 ppm, room temperature (18° C.), assessed after 7 days; read-out: Zymoseptoria (fungal growth vs DMSO controls, EC50 ranking)
Description: as §1, §2, §3, §4, §5

[3] = system: Botrytis cinerea; test: Fungicidal activity screen in amended agar, 96 well plates, Botrytis cinerea; conditions: Medium N agar, 5,000 spores/ml, 20, 2, 0.2 and 0.02 ppm, room temperature (18° C.), assessed after 3 to 4 days, read-out: Botrytis (fungal growth vs DMSO controls, EC50 ranking)
Description: as §1, §2, §3, §4, §5

COc1ccnc2c(=O)n(-c3nc4ccc(Oc5ccccc5OC(F)(F)F)cc4s3)c(=S)oc12 [Example 39, 8-methoxy-2-thioxo-3-(6-(2-(trifluoromethoxy)phenoxy)benzo[d]thiazol-2-yl)-2,3-dihydro-4H-pyrido[2,3-e][1,3]oxazin-4-one]
EC50 [1]: ≥ 20 µg/mL
EC50 [2]: < 2 µg/mL
EC50 [3]: ≥ 20 µg/mL

COc1ccnc2c(=O)n(-c3nc4ccc(Oc5cc(F)cc(F)c5)cc4s3)c(=S)oc12 [Example 21, 3-(6-(3,5-Difluorophenoxy)benzo[d]thiazol-2-yl)-8-methoxy-2-thioxo-2,3-dihydro-4H-pyrido[2,3-e][1,3]oxazin-4-one]
EC50 [1]: 2 to 20 µg/mL (≈ 4.24 to 42.4 µM)
EC50 [2]: < 2 µg/mL
EC50 [3]: 2 to 20 µg/mL (≈ 4.24 to 42.4 µM)

COc1ccnc2c(=O)n(-c3nc4ccc(Oc5cccnc5Cl)nc4s3)c(=S)oc12 [Example 41, 3-(5-((2-chloropyridin-3-yl)oxy)thiazolo[5,4-b]pyridin-2-yl)-8-methoxy-2-thioxo-2,3-dihydro-4H-pyrido[2,3-e][1,3]oxazin-4-one]
EC50 [1]: ≥ 20 µg/mL
EC50 [2]: ≥ 20 µg/mL
EC50 [3]: ≥ 20 µg/mL

COc1ccnc2c(=O)n(-c3nc4ccc(Oc5cccnc5Cl)cc4s3)c(=S)oc12 [Example 36, 3-(6-((2-chloropyridin-3-yl)oxy)benzo[d]thiazol-2-yl)-8-methoxy-2-thioxo-2,3-dihydro-4H-pyrido[2,3-e][1,3]oxazin-4-one]
EC50 [1]: ≥ 20 µg/mL
EC50 [2]: < 2 µg/mL
EC50 [3]: ≥ 20 µg/mL

CCOc1ccccc1Oc1ccc2nc(-n3c(=S)oc4c(OC)ccnc4c3=O)sc2c1 [Example 49, 3-(6-(2-ethoxyphenoxy)benzo[d]thiazol-2-yl)-8-methoxy-2-thioxo-2,3-dihydro-4H-pyrido[2,3-e][1,3]oxazin-4-one]
EC50 [1]: ≥ 20 µg/mL
EC50 [2]: < 2 µg/mL
EC50 [3]: ≥ 20 µg/mL

COc1ccnc2c(=O)n(-c3nc4ccc(Oc5ccccc5Cl)nc4s3)c(=S)oc12 [Example 40, 3-(5-(2-chlorophenoxy)thiazolo[5,4-b]pyridin-2-yl)-8-methoxy-2-thioxo-2,3-dihydro-4H-pyrido[2,3-e][1,3] oxazin-4-one]
EC50 [1]: ≥ 20 µg/mL
EC50 [2]: < 2 µg/mL
EC50 [3]: ≥ 20 µg/mL

COc1ccnc2c(=O)n(-c3nc4ccc(Oc5ccccc5OC(F)F)cc4s3)c(=S)oc12 [Example 50, 3-(6-(2-(difluoromethoxy)phenoxy)benzo[d]thiazol-2-yl)-8-methoxy-2-thioxo-2,3-dihydro-4H-pyrido[2,3-e][1,3]oxazin-4-one]
EC50 [1]: ≥ 20 µg/mL
EC50 [2]: < 2 µg/mL
EC50 [3]: ≥ 20 µg/mL

COc1ccnc2c(=O)n(-c3nc4ccc(Oc5ccc(F)cc5)cc4s3)c(=S)oc12 [Example 10, 3-(6-(4-Fluorophenoxy)benzo[d]thiazol-2-yl)-8-methoxy-2-thioxo-2,3-dihydro-4H-pyrido[2,3-e][1,3]oxazin-4-one]
EC50 [1]: < 2 µg/mL
EC50 [2]: < 2 µg/mL
EC50 [3]: 2 to 20 µg/mL (≈ 4.41 to 44.1 µM)

COc1ccnc2c(=O)n(-c3nc4ccc(Oc5ccc(F)cc5Cl)cc4s3)c(=S)oc12 [Example 6, 3-(6-(2-Chloro-4-fluorophenoxy)benzo[d]thiazol-2-yl)-8-methoxy-2-thioxo-2,3-dihydro-4H-pyrido[2,3-e][1,3]oxazin-4-one]
EC50 [1]: 2 to 20 µg/mL (≈ 4.1 to 41 µM)
EC50 [2]: < 2 µg/mL
EC50 [3]: 2 to 20 µg/mL (≈ 4.1 to 41 µM)

COc1ccnc2c(=O)n(-c3nc4ccc(OC5CCCCC5)cc4s3)c(=S)oc12 [Example 22, 3-(6-(Cyclohexyloxy)benzo[d]thiazol-2-yl)-8-methoxy-2-thioxo-2,3-dihydro-4H-pyrido[2,3-e][1,3]oxazin-4-one]
EC50 [1]: ≥ 20 µg/mL
EC50 [2]: 2 to 20 µg/mL (≈ 4.53 to 45.3 µM)
EC50 [3]: 2 to 20 µg/mL (≈ 4.53 to 45.3 µM)

COc1ccnc2c(=O)n(-c3nc4ccc(Oc5ccccc5)cc4s3)c(=S)oc12 [Example 17, 8-Methoxy-3-(6-phenoxybenzo[d]thiazol-2-yl)-2-thioxo-2,3-dihydro-4H-pyrido[2,3-e][1,3]oxazin-4-one]
EC50 [1]: 2 to 20 µg/mL (≈ 4.59 to 45.9 µM)
EC50 [2]: < 2 µg/mL
EC50 [3]: 2 to 20 µg/mL (≈ 4.59 to 45.9 µM)

Source: patent US12415815B2, “Pyrido[2,3-e]oxazine derivatives as agricultural chemicals” (GLOBACHEM NV, priority 2020, dated 2025)
